The values below come from patent publication US20100297102A1, “SEROTONIN 5-HT3A RECEPTORS IN TREATMENT OF NEUROLOGICAL AND PSYCHIATRIC DISORDERS” (priority 2006, published 2010).

One series relates to EGFP-positive cells. In words: Organotypic slice culture: migration/distribution of EGFP-positive neuroblasts. The format is cell-based, mice. The method, then: The presence of functional 5-HT3 receptors on neuroblasts raised the question whether the receptor activation plays a role in the migration and maturation of GABAergic inhibitory neurons in postnatal life. To this end, studies were carried out in organotypic slices obtained from P3 transgenic mice (n=8) and cultured in vitro for 6 days. There were clear alterations in the cortical distribution of EGFP-positive cells in slices treated with the specific 5-HT3 antagonist tropisetron (1 μM) compared to corresponding untreated slices (FIGS. 4, A and B). The decrease in the number of EGFP-expressing cells in tropisetron-treated animals in cortex and hippocampus indicates a deficit in the migration of these cells, rather than cell death since the neuroblasts are still clearly visible in the stream. […] By P3 when slices were made, many EGFP-expressing cells have already reached their destination.
Organotypic slice culture experiments. Organotypic slice cultures were performed as previously described. After 6 days in culture, slices, control or treated with tropisetron (Sigma), were fixed for 1 hr in 4% PFA and processed for immunostaining using polyclonal rabbit anti-EGFP antibody. Cell counts were performed in pairs of matching tropisetron-treated and untreated slices. EGFP-positive cells were counted in deep, in superficial cortical layers and in stratum radiatum of the hippocampus within three standardized rectangular regions of 200×150 μm2 for each region. Data from control and treated slices were analyzed by Student's t test.

In another series the target is T1, 5-HT3 receptor (Mus musculus, UniProt P23979).
T1 sequence (P23979 24-489): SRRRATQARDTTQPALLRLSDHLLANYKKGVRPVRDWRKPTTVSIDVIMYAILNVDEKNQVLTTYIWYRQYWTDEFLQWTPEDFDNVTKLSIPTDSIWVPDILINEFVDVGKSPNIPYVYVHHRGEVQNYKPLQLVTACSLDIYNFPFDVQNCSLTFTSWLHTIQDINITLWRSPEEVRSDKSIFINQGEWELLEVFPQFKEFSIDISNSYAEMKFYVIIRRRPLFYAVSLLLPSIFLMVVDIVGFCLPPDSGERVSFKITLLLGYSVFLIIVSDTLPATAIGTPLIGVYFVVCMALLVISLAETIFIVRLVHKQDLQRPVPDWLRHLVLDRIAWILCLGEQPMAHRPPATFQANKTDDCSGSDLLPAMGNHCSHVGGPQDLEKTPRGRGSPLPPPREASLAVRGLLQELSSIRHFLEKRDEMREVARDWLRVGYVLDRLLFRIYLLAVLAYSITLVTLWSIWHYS
Nature of the series: Whole-cell patch-clamp of 5-HT3 receptor-mediated inward current in EGFP-positive neurons/neuroblasts in acute slices. The series is classed as cell-based, mice.

The conditions of series [1]: after intraperitoneal injection; cited from earlier work.
Another series deals with transgenic mice. Nature of the series: Toxicity of BrdU injections in birthdating experiments. The series is classed as in vivo.
The mark [2] stands for this setting: tropisetron 1 μM, slices from P3 transgenic mice, 6 days in culture, n=8.

Source text for 5-HT3 receptor: We thus performed patch-clamp recordings from cells with the typical migratory morphology in the DMS using acute sagittal slices from transgenic animals (FIG. 3, A).
Slice preparation and electrophysiology. 250-350 μm-thick parasagittal brain sections (for recordings in hippocampus, cortex, RMS and DMS) or coronal brain sections (for recordings in amygdala) were made from transgenic mice (P8-P42) using a vibratome (Leica VT1000S). Whole-cell voltage and current clamp recordings were made from visually identified, EGFPpositive neurons using and EPC9 amplifier (HEKA) and an upright microscope (Zeiss Axioskop FS2) equipped with IR-DIC and standard epifluorescence. […] Slices were continuously superfused with ACSF containing (in mM): 120 NaCl, 3.5 KCl, 2.5 CaCl2, 1.3 MgSO4, 1.25 NaH2PO4, 25 NaHCO3, 25 glucose. The presence of functional 5-HT3 receptors was assessed by application of 100 μM 5-HT (dissolved in ACSF) via pressure 12 ejection from a second pipette connected to a picospritzer. Cells were voltage clamped at −60 mV. Signals were filtered at 1-5 kHz, sampled at 2-10 kHz and off-line analysis was performed using Igor Pro (Wavemetrics).
Procedure for transgenic mice: Birthdating analysis. Pregnant mice and P7 transgenic mice were injected intraperitoneally with 50 mg/kg or 300 mg/kg BrdU (Sigma) (body weight), sacrificed after 1 or 4 weeks and processed for immunostaining.
Five BrdU injections (50 mg/kg, intraperitoneally) were administered every 2 hrs apart for 8 hours at E12.5, E14.5, E16.5 and P7 (FIG. 10). […] To avoid a cumulative effect, 5 pulses of BrdU (one pulse per day) were administered from P7 to P12. At P7 two treatments, one with 50 mg/kg and with 300 mg/kg of BrdU were carried.

Consider `CN1[C@@H]2CC[C@H]1C[C@@H](OC(=O)c1c[nH]c3ccccc13)C2` [tropisetron], for which, in the series on EGFP-positive cells (slices from P3 transgenic mice treated with tropisetron, compared to control (FIG. 4)), the “cell density in the DMS” value is on record as “increase in cell density in the DMS”. Further, in the series on EGFP-positive cells (tropisetron 100 nM, n=3), the “number of EGFP positive cells in hippocampus, of control levels” value was found to be 74.7%; the “number of EGFP positive cells in superficial cortical layers, of control levels” value turned out to be 81.1%; the “number of EGFP positive cells in the deep cortex, of control levels” value is on record as 70.8%. In the series on EGFP-positive cells (setting [2]), the “number of EGFP positive cells in deep cortical layers, of the control level” value is recorded as 68.4%; the “number of EGFP positive cells in stratum radiatum of the hippocampus, of the control level” value is on record as 72.6%; the “number of EGFP positive cells in superficial layers, of the control level” value is on record as 76.4%.
As for `NCCc1c[nH]c2ccc(O)cc12` [5-HT, 5-hydroxytryptamine], at 5-HT3 receptor (application of 5-HT (100 μM), mature/spiking neuroblasts in the DMS, 18 out of 22 responded), the “5-HT3 receptor-mediated inward current, average amplitude” value is listed as −46.0±10.5 pA.
As to `O=c1[nH]c(=O)n([C@H]2C[C@H](O)[C@@H](CO)O2)cc1Br` [BrdU], in series [1], the “persistence in the circulation” value is “less than a few hours”. In addition, the toxic effects entry with transgenic mice (P16 mice after BrdU treatment, 50 mg/kg and 300 mg/kg i.p., dose-dependent) was “Hair loss and motor deficits”. In addition, the “EGFP-positive cell number in the granule cell layer and periglomerular cell layer of the OB” value in the series on transgenic mice (at P16, injected at P7 with 50 mg/kg BrdU, compared to untreated transgenic control mice (FIG. 10F)) is on record as “Reduction”; in the series on transgenic mice (at P16, injected at P7 with 300 mg/kg BrdU, compared to untreated transgenic control mice (FIG. 10G)), “Reduction”. For the same molecule, the “number of EGFP-positive cells in the cortex, the RMS and OB” value with transgenic mice (at P16 after postnatal treatment with BrdU) was “reduction”.
For the molecule `CN1[C@@H]2CC[C@H]1C[C@@H](OC(=O)c1cc(Cl)cc(Cl)c1)C2` [MDL72222], at 5-HT3 receptor (whole-cell voltage clamped EGFP-positive neurons, n=5 (FIG. 1B)), the “block of 5-HT3 receptor-mediated inward current evoked by 100 μM 5-HT” value is on record as “can be blocked”.
